Reference: publication PMC12316308, “Interactions of substrates and phosphinyl containing inhibitors with bacterial and human zinc proteases” (PLOS One, 2025)
Several values for one entry are separate records, joined by “and”; a condition that tells them apart may be missing. Identical values can stand only once. Like-named read-outs stand apart in the source and are kept apart here.

Legend:
[1] = target: T1, Mag-Trypsin activated MMP-9 (MMP-9(MT)) (Homo sapiens, UniProt P14780); test: Enzyme inhibition kinetics, fluorogenic substrate ES001; format: biochemical; conditions: for remaining activity at 100 µM: 100 µM inhibitor; for vi/v0: Mag-Trypsin activated recombinant human MMP-9, v0 = average of vi at 10-10 to 10-8 M H2
T1 construct: made in house; host or cells: Sf9 and High Five insect cells
T1 sequence (P14780 107-707 limits assumed): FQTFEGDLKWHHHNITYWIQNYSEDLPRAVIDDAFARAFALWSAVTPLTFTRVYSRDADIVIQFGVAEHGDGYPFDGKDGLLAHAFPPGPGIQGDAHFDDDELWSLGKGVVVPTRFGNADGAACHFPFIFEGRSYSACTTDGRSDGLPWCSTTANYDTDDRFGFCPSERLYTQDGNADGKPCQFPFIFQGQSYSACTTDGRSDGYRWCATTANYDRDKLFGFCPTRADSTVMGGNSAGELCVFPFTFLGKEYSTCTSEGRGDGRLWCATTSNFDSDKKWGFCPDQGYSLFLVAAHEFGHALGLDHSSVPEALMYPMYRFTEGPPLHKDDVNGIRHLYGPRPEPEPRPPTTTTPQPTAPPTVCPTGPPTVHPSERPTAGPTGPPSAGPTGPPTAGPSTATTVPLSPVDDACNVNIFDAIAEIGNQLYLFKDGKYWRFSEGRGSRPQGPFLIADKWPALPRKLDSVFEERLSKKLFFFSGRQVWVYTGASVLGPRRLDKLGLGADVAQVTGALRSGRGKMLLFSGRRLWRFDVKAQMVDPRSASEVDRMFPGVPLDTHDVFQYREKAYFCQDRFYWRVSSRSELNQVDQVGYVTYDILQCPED

[2] = target: T2, APMA activated MMP-9 (MMP-9(A)) (Homo sapiens, UniProt P14780); test: as above; format: biochemical; conditions: for remaining activity at 10 µM: 10 µM inhibitor
T2 construct: made in house; host or cells: Sf9 and High Five insect cells
T2 sequence (P14780 107-707 limits assumed): as above
In short: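 Recombinant full-length proMMP-9 expressed in insect cells was auto-activated with APMA and titrated with galardin. Activity at 0.05 nM enzyme was measured using 4.0 µM fluorogenic substrate ES001 in 100 µL 0.1 M Hepes pH 7.5 containing 10 mM CaCl2, 0.005% Brij-35 and 1.0% DMSO. Initial rates were followed at 37°C (excitation 320 nm, emission 405 nm) relative to inhibitor-free controls.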

[3] = target: T3, human MT1-MMP/MMP-14 (catalytic domain) (Homo sapiens, UniProt P50281); test: as above; format: biochemical; conditions: for remaining activity at 10 µM: 10 µM inhibitor
T3 construct: human MT1-MMP/MMP-14 (catalytic domain); purchased Calbiochem (San Diego, CA, USA)

[4] = target: MMP-9; conditions: previously reported; cited from earlier work
[5] = target: MMP-14; conditions: cited from earlier work
[6] = target: T4, thermolysin (TLN) (Bacillus thermoproteolyticus, UniProt P00800); test: Enzyme inhibition kinetics, fluorogenic substrate ES005; format: biochemical; conditions: for remaining activity at 10 µM: log [H2] (M) -5; for remaining activity at 0.1 µM: log [H2] (M) -7; for remaining activity at 0.01 µM: log [H2] (M) -8; for remaining activity at 0.0001 µM: log [H2] (M) -10; for vi/v0 avg (time dependent inhibition, Supplementary Figure S8): Thermolysin, inhibitor 10 µM
T4 construct: purchased Calbiochem (San Diego, CA, USA)
T4 sequence (P00800 233-548): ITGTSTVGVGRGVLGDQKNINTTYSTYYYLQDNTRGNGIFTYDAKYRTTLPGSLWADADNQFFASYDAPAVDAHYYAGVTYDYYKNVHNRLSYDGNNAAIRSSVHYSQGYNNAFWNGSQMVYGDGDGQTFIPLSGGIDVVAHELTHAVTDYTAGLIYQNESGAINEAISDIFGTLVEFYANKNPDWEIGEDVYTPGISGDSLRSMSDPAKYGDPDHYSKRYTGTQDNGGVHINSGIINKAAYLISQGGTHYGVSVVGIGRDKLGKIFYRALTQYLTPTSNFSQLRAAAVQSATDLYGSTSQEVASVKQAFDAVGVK
In short: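 Initial rates were read at 37 °C (ex 320/em 405 nm) with 4.0 µM substrate, ES001 for MMP-14 (1.0 nM) and ES005 for PLN (0.5 nM), TLN (0.21 nM), ALN (1.4 nM), in pH 7.5 Hepes, 10 mM CaCl2, 0.005% Brij-35, 1.0% DMSO. Enzymes were preincubated 30 min at room temperature or not; IC50 fitted, Ki from IC50 using Km.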

[7] = target: T5, aureolysin (ALN) (Staphylococcus aureus, UniProt P81177); test: as above; format: biochemical; conditions: for remaining activity at 100 µM: 100 µM inhibitor
T5 construct: purchased BioCentrum Ltd (Kraków, Poland)
T5 sequence (P81177 209-509): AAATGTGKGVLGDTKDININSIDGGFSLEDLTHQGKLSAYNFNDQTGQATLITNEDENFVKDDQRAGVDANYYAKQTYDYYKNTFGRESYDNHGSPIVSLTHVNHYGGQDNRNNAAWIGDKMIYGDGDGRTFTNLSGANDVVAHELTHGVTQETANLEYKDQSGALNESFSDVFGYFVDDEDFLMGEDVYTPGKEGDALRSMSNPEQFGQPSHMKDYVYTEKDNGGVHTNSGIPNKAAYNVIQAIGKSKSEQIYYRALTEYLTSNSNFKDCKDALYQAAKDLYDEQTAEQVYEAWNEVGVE

[8] = target: T6, pseudolysin (PLN, LasB) (Pseudomonas aeruginosa, UniProt P14756); test: as above; format: biochemical; conditions: for remaining activity at 100 µM: 100 µM inhibitor
T6 construct: purchased Calbiochem (San Diego, CA, USA)
T6 sequence (P14756 198-498): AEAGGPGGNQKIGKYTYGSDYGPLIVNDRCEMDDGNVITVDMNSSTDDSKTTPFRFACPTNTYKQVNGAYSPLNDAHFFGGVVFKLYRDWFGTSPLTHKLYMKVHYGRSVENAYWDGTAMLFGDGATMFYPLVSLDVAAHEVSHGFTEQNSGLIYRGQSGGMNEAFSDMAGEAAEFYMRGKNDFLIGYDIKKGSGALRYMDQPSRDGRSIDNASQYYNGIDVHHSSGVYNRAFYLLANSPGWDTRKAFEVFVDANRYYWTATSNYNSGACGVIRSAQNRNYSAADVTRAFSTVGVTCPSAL

[9] = TLN, log [H2] (M) -4, replicates
[10] = TLN, replicates, read-out: vi/v0 before correction of kurve
[11] = TLN, replicates, read-out: vi/v0 corrected (v0 is the average of log -10 to log -7)

Molecule `NC(=O)C(Cc1c[nH]c2ccccc12)NC(=O)C(CCCc1ccccc1)CP(=O)(O)C(Cc1ccccc1)NC(=O)OCc1ccccc1` (centres unmarked) [H-2] has a remaining activity at 100 µM ([1]; 0.25 h, read-out: vi/v0 avg, rMMP-9 (Mag-trypsin activated), 15 min pre incubation) of 1.53%, a remaining activity at 100 µM ([1]; 0.5 h, read-out: vi/v0 (single replicate), rMMP-9 (Mag-trypsin activated), 30 min pre incubation) of 1.66% and a remaining activity at 100 µM ([1]; 0.5 h, read-out: vi/v0 avg, rMMP-9 (Mag-trypsin activated), 30 min pre incubation) of 1.41%. The “inhibitory effect on enzymatic activity” value ([1]; MMP-9(MT), 100 μM compound, in words) was “strong inhibition”, the Ki ([1]; MMP-9(MT), substrate ES001 4.0 µM, 0.1 M Hepes pH 7.5, 37°C, 1.0% DMSO, Ki from IC50 (Eqn. 3), read-out: Ki ± s.d. (converted)) was 530 nM and the vi/v0 ([1]; Log [H2] (M) -4) was 0.01838 and 0.0265 and 0.01864 and 0.01609. The vi/v0 ([1]; Log [H2] (M) -5) was 0.1569 and 0.1424 and 0.1393 and 0.1595, the vi/v0 ([1]; Log [H2] (M) -6) was 0.5598 and 0.5376 and 0.5583 and 0.5906 and the vi/v0 ([1]; Log [H2] (M) -7) was 0.8621 and 0.7854 and 0.9893. For the same molecule, the vi/v0 ([1]; Log [H2] (M) -8) was 0.9994 and 0.9899 and 0.9629, the vi/v0 ([1]; Log [H2] (M) -9) was 0.9775 and 0.9856 and 0.9448 and the vi/v0 ([1]; Log [H2] (M) -10) was 1.053 and 1.045 and 1.043. The “vi/v0 Av (bar diagram figure 7)” value ([1]; rMMP-9 (Mag-trypsin activated), inhibitor 100 μM, average over 0, 15, 30 min preincubation) was 0.01565, the “vi/v0 (relative enzyme activity with inhibitor), single determinations” value ([1]; rMMP-9 (Mag-trypsin activated), inhibitor 100 μM, preincubation 0 min) was 0.01777 and 0.01586 and 0.01778 and 0.01563 and the “vi/v0 (relative enzyme activity with inhibitor), single determinations” value ([1]; rMMP-9 (Mag-trypsin activated), inhibitor 100 μM, preincubation 30 min) was 0.01655 and 0.01171. For the same molecule, the remaining activity at 100 µM ([1]; read-out: vi/v0 (single replicate), rMMP-9 (Mag-trypsin activated), no preincubation) was 1.78%, the remaining activity at 100 µM ([1]; read-out: vi/v0 avg, rMMP-9 (Mag-trypsin activated), no preincubation) was 1.68% and the remaining activity at 10 µM ([2]; 0.25 h, read-out: vi/v0 (single replicate), rMMP-9 (APMA activated), 15 min pre incubation) was 2.55%. It also gave a remaining activity at 10 µM ([2]; 0.25 h, read-out: vi/v0 avg, rMMP-9 (APMA activated), 15 min pre incubation) of 2.28%, a remaining activity at 10 µM ([2]; 0.5 h, read-out: vi/v0 (single replicate), rMMP-9 (APMA activated), 30 min pre incubation) of 1.79% and a remaining activity at 10 µM ([2]; 0.5 h, read-out: vi/v0 avg, rMMP-9 (APMA activated), 30 min pre incubation) of 1.99%. For the same molecule, the “inhibitory effect on enzymatic activity” value ([2]; MMP-9(A), 100 μM compound, in words) was “strong inhibition”, the Ki ([2]; MMP-9(A), substrate ES001 4.0 µM, 0.1 M Hepes pH 7.5, 37°C, 1.0% DMSO, Ki from IC50 (Eqn. 3), read-out: Ki ± s.d. (converted)) was 560 nM and the “vi/v0 Av (bar diagram figure 7)” value ([2]; rMMP-9 (APMA activated), inhibitor 10 μM, average over 0, 15, 30 min preincubation) was 0.02111. For the same molecule, the “vi/v0 (relative enzyme activity with inhibitor), single determinations” value ([2]; rMMP-9 (APMA activated), inhibitor 10 μM, preincubation 0 min) was 0.0222 and 0.02292 and 0.01955 and 0.01797, the “vi/v0 (relative enzyme activity with inhibitor), single determinations” value ([2]; rMMP-9 (APMA activated), inhibitor 10 μM, preincubation 15 min) was 0.02548 and 0.02093 and 0.0213 and 0.0234 and the “vi/v0 (relative enzyme activity with inhibitor), single determinations” value ([2]; rMMP-9 (APMA activated), inhibitor 10 μM, preincubation 30 min) was 0.01792 and 0.01966 and 0.0206 and 0.02139. The remaining activity at 10 µM ([2]; read-out: vi/v0 (single replicate), rMMP-9 (APMA activated), no preincubation) was 2.22%, the remaining activity at 10 µM ([2]; read-out: vi/v0 avg, rMMP-9 (APMA activated), no preincubation) was 2.07% and the remaining activity at 10 µM ([3]; 0.25 h, MMP-14, 15 min pre incubation, read-out: vi/v0 (single replicate)) was 16.5%. The remaining activity at 10 µM ([3]; 0.25 h, MMP-14, 15 min pre incubation, read-out: vi/v0 avg) was 16%, the remaining activity at 10 µM ([3]; 0.5 h, MMP-14, 30 min pre incubation, read-out: vi/v0 (single replicate)) was 14.6% and the remaining activity at 10 µM ([3]; 0.5 h, MMP-14, 30 min pre incubation, read-out: vi/v0 avg) was 14.7%. The remaining activity at 10 µM ([3]; MMP-14, no preincubation, read-out: vi/v0 (single replicate)) was 14.5%, the remaining activity at 10 µM ([3]; MMP-14, no preincubation, read-out: vi/v0 avg) was 17.8% and the “inhibitory effect on enzymatic activity” value ([3]; MMP-14, 100 μM compound, in words) was “strong inhibition”. The “vi/v0 Av (bar diagram figure 7)” value ([3]; MMP-14, inhibitor 10 μM, average over 0, 15, 30 min preincubation) was 0.1603, the “vi/v0 (relative enzyme activity with inhibitor), single determinations” value ([3]; MMP-14, inhibitor 10 μM, preincubation 0 min) was 0.1454 and 0.1797 and 0.2098 and the Ki ([3]; read-out: Ki ± s.d. (converted)) was 3000 nM. The Ki [4] was 10 nM, the Ki ([5]; RRS enantiomer) was 386 nM and the Ki ([5]; RSS enantiomer) was 90 nM. For the same molecule, the Ki ([5]; previously reported) was 40 nM, the “inhibitory effect on enzymatic activity” value ([6]; TLN, 100 μM compound, in words) was “strong inhibition” and the “vi/v0 before correction of kurve” value [6, 9] was 0. For the same molecule, the “vi/v0 corrected (v0 is the average of log -10 to log -7)” value [6, 9] was 0, the remaining activity at 100 µM ([6]; TLN, log [H2] (M) -4, replicates, read-out: vi/v0 before correction of kurve) was 0% and the remaining activity at 100 µM ([6]; TLN, log [H2] (M) -4, replicates, read-out: vi/v0 corrected (v0 is the average of log -10 to log -7)) was 0%. The remaining activity at 10 µM [6, 10] was 28.2%, the remaining activity at 10 µM [6, 11] was 28.1% and the remaining activity at 0.1 µM [6, 10] was 99.7%. The remaining activity at 0.1 µM [6, 11] was 99.5%, the remaining activity at 0.01 µM [6, 10] was 102% and the remaining activity at 0.01 µM [6, 11] was 102%. The remaining activity at 0.0001 µM [6, 10] was 95%, the remaining activity at 0.0001 µM [6, 11] was 94.8% and the “vi/v0 Av (bar diagram figure 7)” value ([6]; Thermolysin (TLN), inhibitor 10 μM, average over 0, 15, 30 min preincubation) was 0.2888. The “vi/v0 (relative enzyme activity with inhibitor), single determinations” value ([6]; Thermolysin (TLN), inhibitor 10 μM, preincubation 0 min) was 0.2407 and 0.2992 and 0.3158 and 0.3218, the “vi/v0 avg (time dependent inhibition, Supplementary Figure S8)” value ([6]; 15 min pre incubation) was 0.1753 and the “vi/v0 avg (time dependent inhibition, Supplementary Figure S8)” value ([6]; 30 min pre incubation) was 0.294. The “vi/v0 avg (time dependent inhibition, Supplementary Figure S8)” value ([6]; No preincubation) was 0.2944, the Ki ([6]; read-out: Ki ± s.d.) was 2500 nM and the Ki [7] was 80000 nM. The remaining activity at 100 µM ([7]; 0.25 h, read-out: vi/v0 (single replicate), Aureolysin, 15 min pre incubation) was 45.5%, the remaining activity at 100 µM ([7]; 0.25 h, read-out: vi/v0 avg, Aureolysin, 15 min pre incubation) was 41.5% and the remaining activity at 100 µM ([7]; 0.5 h, read-out: vi/v0 (single replicate), Aureolysin, 30 min pre incubation) was 39.1%. For the same molecule, the remaining activity at 100 µM ([7]; 0.5 h, read-out: vi/v0 avg, Aureolysin, 30 min pre incubation) was 39.4%, the “inhibitory effect on enzymatic activity” value ([7]; ALN, 100 μM compound, in words) was “strong inhibition” and the “vi/v0 Av (bar diagram figure 7)” value ([7]; Aureolysin (ALN), inhibitor 100 μM, average over 0, 15, 30 min preincubation) was 0.4117. For the same molecule, the “vi/v0 (relative enzyme activity with inhibitor), single determinations” value ([7]; Aureolysin (ALN), inhibitor 100 μM, preincubation 0 min) was 0.4244 and 0.4426 and 0.4113 and 0.3677, the “vi/v0 (relative enzyme activity with inhibitor), single determinations” value ([7]; Aureolysin (ALN), inhibitor 100 μM, preincubation 15 min) was 0.4549 and 0.4344 and 0.3957 and 0.4144 and the “vi/v0 (relative enzyme activity with inhibitor), single determinations” value ([7]; Aureolysin (ALN), inhibitor 100 μM, preincubation 30 min) was 0.3912 and 0.406 and 0.3859. The remaining activity at 100 µM ([7]; read-out: vi/v0 (single replicate), Aureolysin, no preincubation) was 42.4%, the remaining activity at 100 µM ([7]; read-out: vi/v0 avg, Aureolysin, no preincubation) was 41.1% and the Ki [8] was 40000 nM. For the same molecule, the remaining activity at 100 µM ([8]; 0.25 h, read-out: vi/v0 (single replicate), Pseudolysin, 15 min pre incubation) was 29.3%, the remaining activity at 100 µM ([8]; 0.25 h, read-out: vi/v0 avg, Pseudolysin, 15 min pre incubation) was 29.7% and the remaining activity at 100 µM ([8]; 0.5 h, read-out: vi/v0 avg, Pseudolysin, 30 min pre incubation) was 28.3%. The “inhibitory effect on enzymatic activity” value ([8]; PLN, 100 μM compound, in words) was “strong inhibition”, the “vi/v0 Av (bar diagram figure 7)” value ([8]; Pseudolysin (PLN), inhibitor 100 μM, average over 0, 15, 30 min preincubation) was 0.3295 and the “vi/v0 (relative enzyme activity with inhibitor), single determinations” value ([8]; Pseudolysin (PLN), inhibitor 100 μM, preincubation 0 min) was 0.3705 and 0.2811 and 0.5391. For the same molecule, the “vi/v0 (relative enzyme activity with inhibitor), single determinations” value ([8]; Pseudolysin (PLN), inhibitor 100 μM, preincubation 15 min) was 0.293 and 0.3019 and the remaining activity at 100 µM ([8]; read-out: vi/v0 avg, Pseudolysin, no preincubation) was 39.7%.
